Experimental data: patent US20250034136A1 (Nimbus Wadjet, Inc., priority 2023, published 2025)
pEC50, pIC50: −log10 of the molar value.

What was measured:
[1] = molecular target: WRN (BV08), human Werner helicase (Uniprot Q14191, amino acids 517-1235 with L1074F point mutation) (Homo sapiens (Human), UniProt Q14191, L1074F); assay: WRN (BV08) ADP-Glo assay; format: biochemical; settings: class symbols A-E, read-out: ADP-Glo_hWRN_IC50
[2] = tested on: p21 induction in HCT116 cells; assay: p21 induction in HCT116 cells; format: cell-based; settings: Homo sapiens, HCT-116, 24 h, HCT116 cells, 24 h compound incubation; read-out: P21_EC50
Method in brief: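 EC50 from non-linear curve fit of p21 immunofluorescence (800 nm), with GAPDH (700 nm) read alongside. DMSO and a reference WRN inhibitor served as low and high controls. Cells (2,000/well) got 11 compound concentrations in duplicate for 24 h at 37 °C.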

Sequence of WRN (BV08), human Werner helicase (Uniprot Q14191, amino acids 517-1235 with L1074F point mutation) (Q14191 other isoform, or with tags, fused parts or gaps L1074F (already in the parent)): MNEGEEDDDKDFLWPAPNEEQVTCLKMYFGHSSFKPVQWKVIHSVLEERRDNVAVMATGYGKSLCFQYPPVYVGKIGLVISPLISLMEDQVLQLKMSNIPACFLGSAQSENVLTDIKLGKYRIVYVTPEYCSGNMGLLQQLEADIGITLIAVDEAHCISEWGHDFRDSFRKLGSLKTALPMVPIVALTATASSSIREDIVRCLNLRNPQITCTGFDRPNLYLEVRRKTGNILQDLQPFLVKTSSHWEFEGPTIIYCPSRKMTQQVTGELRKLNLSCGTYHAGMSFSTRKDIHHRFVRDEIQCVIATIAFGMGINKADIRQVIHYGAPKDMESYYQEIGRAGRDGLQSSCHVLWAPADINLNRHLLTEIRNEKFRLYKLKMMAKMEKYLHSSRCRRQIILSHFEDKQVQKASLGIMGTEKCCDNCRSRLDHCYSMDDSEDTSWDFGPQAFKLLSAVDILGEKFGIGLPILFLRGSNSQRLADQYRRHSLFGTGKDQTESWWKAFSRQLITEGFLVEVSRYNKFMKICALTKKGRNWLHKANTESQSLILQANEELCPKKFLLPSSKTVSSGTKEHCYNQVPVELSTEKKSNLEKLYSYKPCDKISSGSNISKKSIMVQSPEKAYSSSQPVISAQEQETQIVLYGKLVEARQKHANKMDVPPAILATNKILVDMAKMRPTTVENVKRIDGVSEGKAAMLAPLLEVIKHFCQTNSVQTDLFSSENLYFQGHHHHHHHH

Structure (SMILES)	pIC50 [1]	pEC50 [2]
CCc1c(N2CCN(C(=O)c3ncnc(C)c3O)[C@H]3CCC[C@@H]32)c(=O)c2nc(N(C)C)cnc2n1CC(=O)Nc1ccc(C(F)(F)F)cc1Cl [I-130, 2-{7-[(4aS,7aS)-4-(5-hydroxy-6-methylpyrimidine-4-carbonyl)-octahydro-1H-cyclopenta[b]pyrazin-1-yl]-2-(dimethylamino)-6-ethyl-8-oxo-5H,8H-pyrido[2,3-b]pyrazin-5-yl}-N-[2-chloro-4-(trifluoromethyl)phenyl]acetamide]	7.30 to 8.30	> 6.30
CCc1c(N2CCN(C(=O)c3ncnc(C)c3O)CC2)c(=O)c2nc(N(C)C3CCC3)cnc2n1CC(=O)Nc1ccc(C(F)(F)F)cc1Cl [I-131, N-[2-chloro-4-(trifluoromethyl)phenyl]-2-{2-[cyclobutyl(methyl)amino]-6-ethyl-7-[4-(5-hydroxy-6-methylpyrimidine-4-carbonyl)piperazin-1-yl]-8-oxo-5H,8H-pyrido[2,3-b]pyrazin-5-yl}acetamide]	7.30 to 8.30	5.70 to 6.30
CCc1c(N2CCN(C(=O)c3ncnc(C)c3O)CC2)c(=O)c2nc(N(C)C)cnc2n1CC(=O)Nc1ccc(S(F)(F)(F)(F)F)cc1Cl [I-132, N-[2-chloro-4-(pentafluoro-lambda6-sulfanyl)phenyl]-2-[2-(dimethylamino)-6-ethyl-7-[4-(5-hydroxy-6-methylpyrimidine-4-carbonyl)piperazin-1-yl]-8-oxo-5H,8H-pyrido[2,3-b]pyrazin-5-yl]acetamide]	7.30 to 8.30	> 6.30
CCc1c(N2CCN(C(=O)c3ncnc(C)c3O)CC2)c(=O)c2nc(N(C)C)cnc2n1CC(=O)Nc1c(F)cc(C(F)(F)F)cc1Cl [I-133, N-[2-chloro-6-fluoro-4-(trifluoromethyl)phenyl]-2-[2-(dimethylamino)-6-ethyl-7-[4-(5-hydroxy-6-methylpyrimidine-4-carbonyl)piperazin-1-yl]-8-oxo-5H,8H-pyrido[2,3-b]pyrazin-5-yl]acetamide]	7.30 to 8.30	< 5.30
CCc1c(N2CCN(C(=O)c3ncnc(C)c3O)CC2)c(=O)c2nc(/C=C/C(=O)N(C)C)cnc2n1CC(=O)Nc1ccc(C(F)(F)F)cc1Cl [I-134, (2E)-3-[5-({[2-chloro-4-(trifluoromethyl)phenyl]carbamoyl}methyl)-6-ethyl-7-[4-(5-hydroxy-6-methylpyrimidine-4-carbonyl)piperazin-1-yl]-8-oxo-5H,8H-pyrido[2,3-b]pyrazin-2-yl]-N,N-dimethylprop-2-enamide]	7.00 to 7.30	< 5.30
CCc1c(N2CCN(C(=O)c3ncnc(C)c3O)CC2)c(=O)c2nc(-c3ccnn3C)cnc2n1CC(=O)Nc1ccc(C(F)(F)F)cc1Cl [I-137, N-[2-chloro-4-(trifluoromethyl)phenyl]-2-{6-ethyl-7-[4-(5-hydroxy-6-methylpyrimidine-4-carbonyl)piperazin-1-yl]-2-(1-methyl-1H-pyrazol-5-yl)-8-oxo-5H,8H-pyrido[2,3-b]pyrazin-5-yl}acetamide]	7.30 to 8.30	< 5.30
CCc1c(N2CCN(C(=O)c3ncnc(C)c3O)CC2)c(=O)c2nc(/C=C/C(C)(C)O)cnc2n1CC(=O)Nc1ccc(C(F)(F)F)cc1Cl [I-138, N-[2-chloro-4-(trifluoromethyl)phenyl]-2-{6-ethyl-2-[(1E)-3-hydroxy-3-methylbut-1-en-1-yl]-7-[4-(5-hydroxy-6-methylpyrimidine-4-carbonyl)piperazin-1-yl]-8-oxo-5H,8H-pyrido[2,3-b]pyrazin-5-yl}acetamide]	7.30 to 8.30	< 5.30
CCc1c(N2CCN(C(=O)c3ncnc(C)c3O)CC2)c(=O)c2nc(OC3COC3)cnc2n1CC(=O)Nc1ccc(C(F)(F)F)cc1Cl [I-140, N-[2-chloro-4-(trifluoromethyl)phenyl]-2-{6-ethyl-7-[4-(5-hydroxy-6-methylpyrimidine-4-carbonyl)piperazin-1-yl]-2-(oxetan-3-yloxy)-8-oxo-5H,8H-pyrido[2,3-b]pyrazin-5-yl}acetamide]	< 6.30	< 5.30
CCc1c(N2CCN(C(=O)c3ncnc(C)c3O)CC2)c(=O)c2nc(OC3CCC3)cnc2n1CC(=O)Nc1ccc(C(F)(F)F)cc1Cl [I-141, N-[2-chloro-4-(trifluoromethyl)phenyl]-2-{2-cyclobutoxy-6-ethyl-7-[4-(5-hydroxy-6-methylpyrimidine-4-carbonyl)piperazin-1-yl]-8-oxo-5H,8H-pyrido[2,3-b]pyrazin-5-yl}acetamide]	7.30 to 8.30	< 5.30
CCc1c(N2CCN(C(=O)c3ncnc(C)c3O)CC2)c(=O)c2nc(/C=C3\CCC3C)cnc2n1CC(=O)Nc1ccc(C(F)(F)F)cc1Cl (stereo not shown) [I-142, N-[2-chloro-4-(trifluoromethyl)phenyl]-2-{6-ethyl-7-[4-(5-hydroxy-6-methylpyrimidine-4-carbonyl)piperazin-1-yl]-2-[(2-methylcyclobutylidene)methyl]-8-oxo-5H,8H-pyrido[2,3-b]pyrazin-5-yl}acetamide]	≥ 8.30	5.70 to 6.30
CCc1c(N2CCN(C(=O)c3ncnc(C)c3O)CC2)c(=O)c2nc(/C=C/C3CCC3)cnc2n1CC(=O)Nc1ccc(C(F)(F)F)cc1Cl [I-144, N-[2-chloro-4-(trifluoromethyl)phenyl]-2-{2-[(1E)-2-cyclobutylethenyl]-6-ethyl-7-[4-(5-hydroxy-6-methylpyrimidine-4-carbonyl)piperazin-1-yl]-8-oxo-5H,8H-pyrido[2,3-b]pyrazin-5-yl}acetamide]	≥ 8.30	5.70 to 6.30
CCc1c(N2CCN(C(=O)c3c(C#N)cnc(C)c3O)CC2)c(=O)c2ncc(C)nc2n1CC(=O)Nc1ccc(C(F)(F)F)cc1Cl [I-145, N-[2-chloro-4-(trifluoromethyl)phenyl]-2-{7-[4-(5-cyano-3-hydroxy-2-methylpyridine-4-carbonyl)piperazin-1-yl]-6-ethyl-3-methyl-8-oxo-5H,8H-pyrido[2,3-b]pyrazin-5-yl}acetamide]	7.30 to 8.30	< 5.30
CCc1c(N2CCCN(C(=O)c3ncnc(C)c3O)CC2)c(=O)c2nc(N(C)C)cnc2n1CC(=O)Nc1ccc(C(F)(F)F)cc1Cl [I-147, N-[2-chloro-4-(trifluoromethyl)phenyl]-2-[2-(dimethylamino)-6-ethyl-7-[4-(5-hydroxy-6-methylpyrimidine-4-carbonyl)-1,4-diazepan-1-yl]-8-oxo-5H,8H-pyrido[2,3-b]pyrazin-5-yl]acetamide]	7.30 to 8.30	< 5.30
CCc1c(N2CCN(C(=O)c3ncnc(C)c3O)CC2)c(=O)c2nc(N(C)C)cnc2n1CC(=O)Nc1c(F)cc(C(F)(F)F)cc1F [I-148, N-[2,6-difluoro-4-(trifluoromethyl)phenyl]-2-[2-(dimethylamino)-6-ethyl-7-[4-(5-hydroxy-6-methylpyrimidine-4-carbonyl)piperazin-1-yl]-8-oxo-5H,8H-pyrido[2,3-b]pyrazin-5-yl]acetamide]	7.30 to 8.30	< 5.30
CCc1c(N2CCN(C(=O)c3ncnc(C)c3O)CC2)c(=O)c2nc(N3CCC[C@@H]3C)cnc2n1CC(=O)Nc1ccc(C(F)(F)F)cc1Cl [I-149, N-[2-chloro-4-(trifluoromethyl)phenyl]-2-{6-ethyl-7-[4-(5-hydroxy-6-methylpyrimidine-4-carbonyl)piperazin-1-yl]-2-[(2S)-2-methylpyrrolidin-1-yl]-8-oxo-5H,8H-pyrido[2,3-b]pyrazin-5-yl}acetamide]	7.30 to 8.30	5.70 to 6.30
CCc1c(N2CCN(C(=O)c3ncnc(C)c3O)CC2)c(=O)c2nc(N3CCC[C@H]3C)cnc2n1CC(=O)Nc1ccc(C(F)(F)F)cc1Cl [I-150, N-[2-chloro-4-(trifluoromethyl)phenyl]-2-{6-ethyl-7-[4-(5-hydroxy-6-methylpyrimidine-4-carbonyl)piperazin-1-yl]-2-[(2R)-2-methylpyrrolidin-1-yl]-8-oxo-5H,8H-pyrido[2,3-b]pyrazin-5-yl}acetamide]	7.30 to 8.30	5.70 to 6.30
CCc1c(N2CCN(C(=O)c3ncnc(C)c3O)CC2)c(=O)c2nc(N3CCC4(CCC4)C3)cnc2n1CC(=O)Nc1ccc(C(F)(F)F)cc1Cl [I-151, 2-(2-{6-azaspiro[3.4]octan-6-yl}-6-ethyl-7-[4-(5-hydroxy-6-methylpyrimidine-4-carbonyl)piperazin-1-yl]-8-oxo-5H,8H-pyrido[2,3-b]pyrazin-5-yl)-N-[2-chloro-4-(trifluoromethyl)phenyl]acetamide]	7.30 to 8.30	5.30 to 5.70
CCc1c(N2CCN(C(=O)c3ncnc(C)c3O)CC2)c(=O)c2nc(N3CCCC3C(C)(C)O)cnc2n1CC(=O)Nc1ccc(C(F)(F)F)cc1Cl (stereo not shown) [I-152, N-[2-chloro-4-(trifluoromethyl)phenyl]-2-{6-ethyl-7-[4-(5-hydroxy-6-methylpyrimidine-4-carbonyl)piperazin-1-yl]-2-[2-(2-hydroxypropan-2-yl)pyrrolidin-1-yl]-8-oxo-5H,8H-pyrido[2,3-b]pyrazin-5-yl}acetamide]	7.30 to 8.30	< 5.30
CCc1c(N2CCN(C(=O)c3ncnc(C)c3O)CC2)c(=O)c2nc(N3CCC[C@H]3C(C)(C)O)cnc2n1CC(=O)Nc1ccc(C(F)(F)F)cc1Cl [I-153, N-[2-chloro-4-(trifluoromethyl)phenyl]-2-{6-ethyl-7-[4-(5-hydroxy-6-methylpyrimidine-4-carbonyl)piperazin-1-yl]-2-[(2S)-2-(2-hydroxypropan-2-yl)pyrrolidin-1-yl]-8-oxo-5H,8H-pyrido[2,3-b]pyrazin-5-yl}acetamide]	7.30 to 8.30	5.30 to 5.70
CCc1c(N2CCN(C(=O)c3ncnc(C)c3O)CC2)c(=O)c2nc(N(C)CCN(C)C)cnc2n1CC(=O)Nc1ccc(C(F)(F)F)cc1Cl [I-154, N-[2-chloro-4-(trifluoromethyl)phenyl]-2-(2-{[2-(dimethylamino)ethyl](methyl)amino}-6-ethyl-7-[4-(5-hydroxy-6-methylpyrimidine-4-carbonyl)piperazin-1-yl]-8-oxo-5H,8H-pyrido[2,3-b]pyrazin-5-yl)acetamide]	< 6.30	< 5.30
